The results in this text go back to patent JP2011135835A, “ダンマラン系トリテルペン類含有組成物及び呈味改善方法” (Lion Corp, priority 2009, dated 2011).

The data set in a line: physchem. Particulars: for residual rate: after standing 3 weeks at 40°C, 75% relative humidity, HPLC. The class given is physicochemical.

In the case of `CC1(C)CCC[C@](C)([C@H]2CC[C@]3(C)[C@@H]2[C@H](O)C[C@@H]2[C@@]4(C)CC[C@H](O)C(C)(C)[C@@H]4CC[C@]23C)O1` [PD, パナキサジオール], the fraction remaining at 504 h came out at 99.7%. For `CC(C)=CCC[C@](C)(O)[C@H]1CC[C@]2(C)[C@@H]1[C@H](O)C[C@@H]1[C@@]3(C)CC[C@H](O)C(C)(C)[C@@H]3CC[C@]12C` [PPD, プロトパナキサジオール], the residual rate result is “検出されなかった”. Same read-out and setting: in the case of `CC(C)=CCC[C@](C)(O)[C@H]1CC[C@]2(C)[C@@H]1[C@H](O)C[C@@H]1[C@@]3(C)CC[C@H](O)C(C)(C)[C@@H]3[C@@H](O)C[C@]12C` [PPT, プロトパナキサトリオール] it was “検出されなかった”. `CC1(C)CCC[C@](C)([C@H]2CC[C@]3(C)[C@@H]2[C@H](O)C[C@@H]2[C@@]4(C)CC[C@H](O)C(C)(C)[C@@H]4[C@@H](O)C[C@]23C)O1` [PT, パナキサトリオール] came in with an amount remaining at 504 h of 99.8%.
